One compound from patent US11458126B2, “DHODH inhibitor for use in treating hematologic cancers” (PTC THERAPEUTICS, INC., priority 2017, dated 2022) can be followed below.

Assay [1] deals with VEGFA protein production in HT1080 cells. Put plainly: VEGFA protein production as surrogate for inhibition of DHODH function. Type of assay: cell-based, human. The conditions noted are these: blocked by added uridine, not adenosine, cytidine, guanosine (FIG. 1d). As to the method: Determination of ELISA EC50 and Cytotoxicity CC50: All ELISAs were performed using commercially available ELISA kits (R&D Systems) according to the manufacturer's instructions. The screen of 240 cell lines were performed in Crown Bioscience (Shanghai, China). […] Data generated from ELISA or cytotoxicity studies were plotted with Prism software, with the Y-axis typically representing the % inhibition and the X-axis representing log compound concentration. A sigmoid dose response with a variable slope regression curve was generated for each compound. Maximal inhibition was set at 100% and minimal at 0%. EC50 and CC50 values were automatically calculated after curve fitting using the Prism software.

For assay [2], the target named is T1, DHODH (mitochondria isolated from K562 cells) (Homo sapiens, UniProt Q02127).
T1 construct: Mitochondria were isolated from K562 cells in log phase growth with a Dounce homogenizer; endogenous in cells; host or cells: K562 cells (isolated mitochondria)
T1 sequence (Q02127 whole entry): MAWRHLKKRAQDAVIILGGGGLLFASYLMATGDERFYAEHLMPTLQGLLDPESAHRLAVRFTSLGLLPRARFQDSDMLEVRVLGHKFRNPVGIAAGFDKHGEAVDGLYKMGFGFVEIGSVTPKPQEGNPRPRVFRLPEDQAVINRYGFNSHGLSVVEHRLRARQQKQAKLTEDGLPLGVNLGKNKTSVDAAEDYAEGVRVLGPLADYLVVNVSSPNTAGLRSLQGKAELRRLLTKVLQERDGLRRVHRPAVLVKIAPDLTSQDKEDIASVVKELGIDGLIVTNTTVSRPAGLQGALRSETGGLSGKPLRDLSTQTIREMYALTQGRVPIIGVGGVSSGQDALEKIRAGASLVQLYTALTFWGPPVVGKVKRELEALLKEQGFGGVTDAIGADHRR
Description: DHODH activity with purified mitochondria as enzyme source. Type of assay: biochemical. The conditions noted are these: 30 minutes of treatment (FIG. 2c).

A further assay relates to MOLM-13 AML cells. Description: MOLM-13 human acute myeloid leukemia xenograft model. Type of assay: in vivo. The conditions noted are these: nude mice, flank tumor; vehicle 7 days (FIG. 6). As to the method:
Human Xenograft Model: HT1080 or MOLM-13 tumor cells in log phase growth (5-10×10^6 cells/mouse, depending on cell lines) were implanted subcutaneously in male athymic nude mice. When the average tumor size reached the indicated size, mice were randomly divided into groups (10-15 mice/group) and administered vehicle or test compounds orally, once a day or twice per day as indicated. Tumor size was measured using calipers at periodic intervals during the study and tumor volume was calculated as L×W^2/2, in which L represents the longest and W is the shortest diameter of the tumors. At the end of the experiments, tumors were excised and homogenized on ice in Tris-HCl buffer containing a cocktail of proteinase inhibitors using a Powergen homogenizer fitted with Omni-Tip disposable/reusable probes (both from Fisher Scientific). Intratumoral levels of growth factors and proteins were measured using commercially available ELISA kits (R&D Systems). Protein concentrations of the homogenates were measured (Bio-Rad protein assay kit) and intratumoral growth factor levels normalized to the total protein concentration.
(In general: Xenograft models place foreign cells or tissue in a host animal.)

In assay [3] the target is panel of biologically important human kinases. Description: Kinase panel. The class given is biochemical. The conditions noted are these: off-target panel. The source says:
The side-effects associated with these DHODH inhibitors are believed to be due to off-target activities such as kinase inhibition [21; 22]. […] The antiviral compound GSK983 was recently reported as a DHODH inhibitor [23]. […] FACS analysis was done on FACSCalibur (FIG. 8).

Another assay concerns the target DHODH (Homo sapiens, UniProt Q02127). Put plainly: Purified rhDHODH enzymatic assay. Type of assay: biochemical. Further details: full length purified recombinant human DHODH or mitochondria isolated from K562 cells were used as enzyme sources. The conditions noted are these: compared with activity in hematologic cancer cells and other DHODH inhibitors. The source says: Low pyrimidine pool levels may affect certain translation factor(s) or mechanisms required for the non-canonical protein synthesis of stress-regulated mRNAs. […] EIF1A is an isoform that controls translation start codon recognition. Low uridine levels may also affect the mRNA substrate directly: depletion of pyrimidine nucleotides in cancer cells can cause a starvation-like stress response leading to changes in methylation and pseudouridylation of mRNA modifications.
In Vitro DHODH Activity Assays. The chromogen reduction assay was carried out as previously reported. DHODH activity was determined in the presence of compounds or vehicle control using the standard colorimetric DHODH continuous assay in which the oxidation of dihydroorotic acid (DHO) and subsequent reduction of ubiquinone is coupled with and measured by monitoring the reduction of 2,6-dichlorophenolindophenol (DCPIP). Briefly, full length purified recombinant human DHODH or mitochondria isolated from K562 cells were used as enzyme sources to test compound inhibition of DHODH activity. […] The DCIP reduction was monitored by measuring the absorbance at OD610 nm on a BioTek Power Wave XS2 and the enzyme reaction velocity was derived for each reaction using the GENS software.

The structures appear in SMILES notation.

Sequence of DHODH (Q02127 whole entry, canonical isoform): as the sequence (Q02127 whole entry) above

Regarding `COc1ccc([C@H]2c3[nH]c4ccc(Cl)cc4c3CCN2C(=O)Oc2ccc(Cl)cc2)cc1` [Cpd 1, 4-chlorophenyl (S)-6-chloro-1-(4-methoxyphenyl)-1,3,4,9-tetrahydro-2H-pyrido[3,4-b]indole-2-carboxylate], in assay [1], the VEGFA protein production entry is “inhibition of VEGFA protein production”. Further, the “inhibition of DHODH activity (orotate production by LC-MS/MS)” value in assay [2] is “more potently than did teriflunomide and with similar potency as brequinar”. The “median time to reach a tumor volume of 1000 mm^3” value in the assay on MOLM-13 AML cells is recorded as 23 days. For the same compound, the kinase enzyme activity result in assay [3] is listed as “lack of inhibition of kinase enzyme activity”. For the same compound, the “inhibition of DHODH functional activity in purified rhDHODH enzymatic assays” value on DHODH was “less inhibition of DHODH functional activity”.
